Test results from ChEMBL document CHEMBL1201862, “PubChem BioAssay data set” (2004).
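Grown in 96-well plates, cells were treated for 48 hours with each compound at five concentrations. Insufficient inhibition: endpoint recorded as highest concentration tested. GI50 is the concentration that inhibits growth by half.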 The source made the active and inactive calls. No stated cut-off is given here; in the data, active = GI50 up to about 1.1 µM and inactive = higher.

How the values were obtained:
Test in all cases: DTP human tumour cell line panel, 48 h
[1] = tested on: A549
[2] = tested on: MDA-MB-231
[3] = tested on: SNB-75
[4] = tested on: UACC-257
[5] = tested on: IGROV-1
[6] = tested on: PC-3
[7] = tested on: MDA-N
[8] = tested on: HCT-15
[9] = tested on: HCC 2998
[10] = tested on: EKVX
[11] = tested on: ACHN
[12] = tested on: NCI-H23
[13] = tested on: HOP-92
[14] = tested on: MCF7
[15] = tested on: 786-0
[16] = tested on: LOX IMVI
[17] = tested on: MOLT-4
[18] = tested on: KM12
[19] = tested on: HOP-62
[20] = tested on: OVCAR-3
[21] = tested on: K562
[22] = tested on: M14
[23] = tested on: SK-MEL-5
[24] = tested on: NCI-H522
[25] = tested on: U-251
[26] = tested on: OVCAR-5
[27] = tested on: RPMI-8226
[28] = tested on: MDA-MB-435
[29] = tested on: Hs-578T
[30] = tested on: OVCAR-4
[31] = tested on: SF-268
[32] = tested on: SNB-19
[33] = tested on: SK-OV-3
[34] = tested on: A498
[35] = tested on: HL-60
[36] = tested on: HCT-116
[37] = tested on: CAKI-1
[38] = tested on: SW-620
[39] = tested on: UO-31
[40] = tested on: SN12C
[41] = tested on: NCI-H226
[42] = tested on: NCI/ADR-RES
[43] = tested on: COLO 205
[44] = tested on: SK-MEL-2
[45] = tested on: SK-MEL-28
[46] = tested on: RXF 393
[47] = tested on: CCRF-CEM
[48] = tested on: DU-145
[49] = tested on: BT-549
[50] = tested on: OVCAR-8
[51] = tested on: T47D
[52] = tested on: TK-10
[53] = tested on: SR
[54] = tested on: HT-29
[55] = tested on: Malme-3M
[56] = tested on: SF-295
[57] = tested on: NCI-H460
[58] = tested on: UACC-62
[59] = tested on: SF-539

Cc1c2cccc-2c(OCCO)cc2c3ccccc3n(C)c12
GI50 [1]: 3.76 µM (inactive)
GI50 [2]: 2.75 µM (inactive)
GI50 [3]: 5.28 µM (inactive)
GI50 [4]: 4.36 µM (inactive)
GI50 [5]: 1.49 µM (inactive)
GI50 [6]: 3.18 µM (inactive)
GI50 [7]: 3.65 µM (inactive)
GI50 [8]: 6.11 µM
GI50 [9]: 3.64 µM (inactive)
GI50 [10]: 2.63 µM (inactive)
GI50 [11]: 5.12 µM (inactive)
GI50 [12]: 3.4 µM (inactive)
GI50 [13]: 1.77 µM (inactive)
GI50 [14]: 3.65 µM (inactive)
GI50 [15]: 3.37 µM (inactive)
GI50 [16]: 2.77 µM (inactive)
GI50 [17]: 3.86 µM (inactive)
GI50 [18]: 3.21 µM (inactive)
GI50 [19]: 2.56 µM (inactive)
GI50 [20]: 1.46 µM (inactive)
GI50 [21]: 3.72 µM (inactive)
GI50 [22]: 3.44 µM (inactive)
GI50 [23]: 2.12 µM (inactive)
GI50 [24]: 2.18 µM (inactive)
GI50 [25]: 1.87 µM (inactive)
GI50 [26]: 4.83 µM (inactive)
GI50 [27]: 2.81 µM (inactive)
GI50 [28]: 4.35 µM (inactive)
GI50 [29]: 2.6 µM (inactive)
GI50 [30]: 3.09 µM (inactive)
GI50 [31]: 4.02 µM (inactive)
GI50 [32]: 5.09 µM (inactive)
GI50 [33]: 1.58 µM (inactive)
GI50 [34]: 7.59 µM (inactive)
GI50 [35]: 2.16 µM (inactive)
GI50 [36]: 3.16 µM (inactive)
GI50 [37]: 10.2 µM (inactive)
GI50 [38]: 4.08 µM (inactive)
GI50 [39]: 2.57 µM (inactive)
GI50 [40]: 3.13 µM (inactive)
GI50 [41]: 5.58 µM (inactive)
GI50 [42]: 30.8 µM (inactive)
GI50 [43]: 1.69 µM (inactive)
GI50 [44]: 3.15 µM (inactive)
GI50 [45]: 3.73 µM (inactive)
GI50 [46]: 5.57 µM (inactive)
GI50 [47]: 1.92 µM (inactive)
GI50 [48]: 6.79 µM (inactive)
GI50 [49]: 3.45 µM (inactive)
GI50 [50]: 2.9 µM (inactive)
GI50 [51]: 3.1 µM (inactive)
GI50 [52]: 10.7 µM (inactive)
GI50 [53]: 2.34 µM (inactive)
GI50 [54]: 4.24 µM (inactive)
GI50 [55]: 3.85 µM (inactive)
GI50 [56]: 3.67 µM (inactive)
GI50 [57]: 3.73 µM (inactive)
GI50 [58]: 4.7 µM (inactive)
GI50 [59]: 2.54 µM (inactive)

Cc1ccc2c(n1)C(=O)C=CC2=O
GI50 [1]: 16.9 µM (inactive)
GI50 [2]: 4.72 µM (inactive)
GI50 [3]: 19.4 µM (inactive)
GI50 [4]: 7.35 µM (inactive)
GI50 [5]: 14.7 µM (inactive)
GI50 [6]: 16.8 µM (inactive)
GI50 [7]: 7.4 µM (inactive)
GI50 [8]: 9.48 µM
GI50 [9]: 16.3 µM (inactive)
GI50 [10]: 7.03 µM (inactive)
GI50 [11]: 2.89 µM (inactive)
GI50 [12]: 15.7 µM (inactive)
GI50 [13]: 3.9 µM (inactive)
GI50 [14]: 5.33 µM (inactive)
GI50 [15]: 5.96 µM (inactive)
GI50 [16]: 4.88 µM (inactive)
GI50 [17]: 2.61 µM (inactive)
GI50 [18]: 21.2 µM (inactive)
GI50 [19]: 26.3 µM (inactive)
GI50 [20]: 2.71 µM (inactive)
GI50 [21]: 3.1 µM (inactive)
GI50 [22]: 15 µM (inactive)
GI50 [23]: 14.9 µM (inactive)
GI50 [24]: 1.91 µM (inactive)
GI50 [25]: 17.4 µM (inactive)
GI50 [26]: 18.2 µM (inactive)
GI50 [27]: 2.59 µM (inactive)
GI50 [28]: 17.2 µM (inactive)
GI50 [29]: 30.8 µM (inactive)
GI50 [30]: 6.87 µM (inactive)
GI50 [31]: 20.9 µM (inactive)
GI50 [32]: 18 µM (inactive)
GI50 [33]: 18.3 µM (inactive)
GI50 [34]: 16.8 µM (inactive)
GI50 [35]: 0.486 µM (active)
GI50 [36]: 1.97 µM (inactive)
GI50 [37]: 2.02 µM (inactive)
GI50 [38]: 3 µM (inactive)
GI50 [39]: 5.46 µM (inactive)
GI50 [40]: 13.4 µM (inactive)
GI50 [41]: 19.6 µM (inactive)
GI50 [42]: 18.1 µM (inactive)
GI50 [43]: 2.14 µM (inactive)
GI50 [44]: 16.7 µM (inactive)
GI50 [45]: 3.56 µM (inactive)
GI50 [46]: 5.93 µM (inactive)
GI50 [47]: 1.17 µM (inactive)
GI50 [48]: 14.8 µM (inactive)
GI50 [49]: 16.5 µM (inactive)
GI50 [50]: 15.1 µM (inactive)
GI50 [51]: 1.88 µM (inactive)
GI50 [52]: 2.52 µM (inactive)
GI50 [53]: 3.24 µM (inactive)
GI50 [54]: 13.9 µM (inactive)
GI50 [55]: 5.79 µM (inactive)
GI50 [56]: 18.2 µM (inactive)
GI50 [57]: 17.4 µM (inactive)
GI50 [58]: 13.7 µM (inactive)
GI50 [59]: 16.5 µM (inactive)
